Data on two compounds can be found in US7098233B2 (priority 2001, dated 2006).

One data set deals with 5-HT1d (Homo sapiens, UniProt P28221). Briefly: Binding affinity for serotonin subtype 5-HT1d.
Another data set has as its target 5-HT4 (Homo sapiens, UniProt Q13639). Briefly: Binding affinity for serotonin subtype 5-HT4.
In a further data set the target is D1 dopaminergic (Homo sapiens, UniProt P21728). Briefly: Receptor panel binding: D1 dopaminergic.
The next data set concerns the target 5-HT2a (Homo sapiens, UniProt P28223). Briefly: biochemical. The class given is binding.
A further data set deals with DA transporter (Homo sapiens, UniProt Q01959). Briefly: Receptor panel binding: DA transporter.
Sequence of DA transporter (Q01959 whole entry, species assumed): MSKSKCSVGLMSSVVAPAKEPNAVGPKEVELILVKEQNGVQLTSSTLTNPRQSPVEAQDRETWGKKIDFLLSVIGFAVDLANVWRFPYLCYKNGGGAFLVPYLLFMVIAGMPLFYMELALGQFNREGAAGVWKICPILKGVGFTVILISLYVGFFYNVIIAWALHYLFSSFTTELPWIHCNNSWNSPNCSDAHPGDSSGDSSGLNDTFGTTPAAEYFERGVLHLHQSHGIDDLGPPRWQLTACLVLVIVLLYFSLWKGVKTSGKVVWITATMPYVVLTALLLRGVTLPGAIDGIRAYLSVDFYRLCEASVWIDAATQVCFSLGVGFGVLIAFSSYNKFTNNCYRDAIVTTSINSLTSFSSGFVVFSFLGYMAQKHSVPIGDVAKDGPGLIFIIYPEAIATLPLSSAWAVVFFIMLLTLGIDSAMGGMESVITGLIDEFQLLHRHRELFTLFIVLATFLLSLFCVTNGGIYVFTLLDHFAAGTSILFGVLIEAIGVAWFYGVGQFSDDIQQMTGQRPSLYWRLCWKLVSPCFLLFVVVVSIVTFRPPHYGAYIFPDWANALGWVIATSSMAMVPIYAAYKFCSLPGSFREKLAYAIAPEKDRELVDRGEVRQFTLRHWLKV
The next data set deals with T1, 5-HT3 (Homo sapiens, UniProt P46098).
T1 sequence (P46098 24-478): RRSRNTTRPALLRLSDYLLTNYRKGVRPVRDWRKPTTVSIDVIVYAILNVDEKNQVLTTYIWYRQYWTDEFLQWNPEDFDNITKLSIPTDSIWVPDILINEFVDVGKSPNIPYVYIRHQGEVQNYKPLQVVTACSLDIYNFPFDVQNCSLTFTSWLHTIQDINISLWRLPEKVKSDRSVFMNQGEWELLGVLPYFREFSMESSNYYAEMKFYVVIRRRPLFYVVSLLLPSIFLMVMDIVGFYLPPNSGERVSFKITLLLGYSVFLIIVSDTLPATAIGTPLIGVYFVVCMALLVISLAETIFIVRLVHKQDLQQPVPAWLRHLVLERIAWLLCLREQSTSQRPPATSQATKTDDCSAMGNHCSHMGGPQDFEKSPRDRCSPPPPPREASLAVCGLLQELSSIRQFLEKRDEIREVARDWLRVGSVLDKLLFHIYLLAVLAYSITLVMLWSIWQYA
Briefly: Binding affinity for serotonin subtype 5-HT3.

A further data set has as its target 5-HT5a (Homo sapiens, UniProt P47898). Briefly: Binding affinity for serotonin subtype 5-HT5a.
The target of another data set is opiate (non-selective). Briefly: Receptor panel binding: opiate. The conditions noted are these: read-out: affinity value, opiate (non-selective).
The next data set has as its target vasopressin V1. Put plainly: Receptor panel binding: vasopressin V1. The conditions noted are these: read-out: affinity (Ki), vasopressin V1.
The next data set concerns the target D3 dopaminergic (Homo sapiens, UniProt P35462). Briefly: Receptor panel binding: D3 dopaminergic.
The target of a further data set is D2 dopaminergic (Homo sapiens, UniProt P14416). Put plainly: Receptor panel binding: D2 dopaminergic.
Sequence of D2 dopaminergic (P14416 whole entry): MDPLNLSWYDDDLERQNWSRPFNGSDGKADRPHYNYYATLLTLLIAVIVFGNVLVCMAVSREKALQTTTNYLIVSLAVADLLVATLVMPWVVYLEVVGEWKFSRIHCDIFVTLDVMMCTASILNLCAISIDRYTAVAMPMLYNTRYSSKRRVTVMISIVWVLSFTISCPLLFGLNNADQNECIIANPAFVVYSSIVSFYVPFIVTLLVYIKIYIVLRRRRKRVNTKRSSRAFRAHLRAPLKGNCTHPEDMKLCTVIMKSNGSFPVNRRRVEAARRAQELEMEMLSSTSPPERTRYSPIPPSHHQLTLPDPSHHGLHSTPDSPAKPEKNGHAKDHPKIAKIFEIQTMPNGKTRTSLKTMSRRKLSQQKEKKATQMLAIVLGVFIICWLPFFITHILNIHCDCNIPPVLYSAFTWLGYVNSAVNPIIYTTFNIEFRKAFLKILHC
The target in data set [1] is T2, rat 5-HT6 stably transfected to HEK293 (Rattus norvegicus, UniProt P31388).
T2 construct: expressed in transfected cells; host or cells: HEK293
T2 sequence (P31388 whole entry): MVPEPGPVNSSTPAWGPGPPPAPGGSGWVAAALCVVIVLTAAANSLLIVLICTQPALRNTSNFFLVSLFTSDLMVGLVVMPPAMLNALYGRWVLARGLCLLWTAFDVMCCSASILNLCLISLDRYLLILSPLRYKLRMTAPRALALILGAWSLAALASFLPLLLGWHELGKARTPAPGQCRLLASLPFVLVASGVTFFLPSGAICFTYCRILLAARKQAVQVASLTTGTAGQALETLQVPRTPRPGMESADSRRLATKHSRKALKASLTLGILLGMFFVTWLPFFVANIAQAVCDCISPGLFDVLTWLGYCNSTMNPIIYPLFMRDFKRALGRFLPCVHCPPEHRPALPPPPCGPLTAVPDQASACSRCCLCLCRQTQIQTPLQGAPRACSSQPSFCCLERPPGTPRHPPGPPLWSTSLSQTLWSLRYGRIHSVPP
Briefly: 5-HT6 receptor binding, [3H]-LSD displacement.

Another data set addresses T3, 5-HT2c (Homo sapiens, UniProt P28335).
T3 sequence (P28335 33-458): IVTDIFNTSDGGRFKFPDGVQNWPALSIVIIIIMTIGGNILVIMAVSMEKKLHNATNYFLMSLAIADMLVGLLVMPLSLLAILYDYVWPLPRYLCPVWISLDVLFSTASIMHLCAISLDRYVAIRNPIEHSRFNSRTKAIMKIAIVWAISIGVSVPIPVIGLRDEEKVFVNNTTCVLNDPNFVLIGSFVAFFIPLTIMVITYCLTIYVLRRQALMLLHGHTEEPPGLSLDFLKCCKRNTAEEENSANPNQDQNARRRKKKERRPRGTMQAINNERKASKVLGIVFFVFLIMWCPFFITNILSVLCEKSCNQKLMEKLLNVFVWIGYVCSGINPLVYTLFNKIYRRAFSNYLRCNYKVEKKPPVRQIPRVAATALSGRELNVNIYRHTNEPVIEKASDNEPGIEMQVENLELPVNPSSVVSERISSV
Put plainly: Binding affinity for serotonin subtype 5-HT2c.

The next data set deals with T4, D4,4 dopaminergic (Homo sapiens, UniProt P21917).
T4 sequence (P21917 1-419): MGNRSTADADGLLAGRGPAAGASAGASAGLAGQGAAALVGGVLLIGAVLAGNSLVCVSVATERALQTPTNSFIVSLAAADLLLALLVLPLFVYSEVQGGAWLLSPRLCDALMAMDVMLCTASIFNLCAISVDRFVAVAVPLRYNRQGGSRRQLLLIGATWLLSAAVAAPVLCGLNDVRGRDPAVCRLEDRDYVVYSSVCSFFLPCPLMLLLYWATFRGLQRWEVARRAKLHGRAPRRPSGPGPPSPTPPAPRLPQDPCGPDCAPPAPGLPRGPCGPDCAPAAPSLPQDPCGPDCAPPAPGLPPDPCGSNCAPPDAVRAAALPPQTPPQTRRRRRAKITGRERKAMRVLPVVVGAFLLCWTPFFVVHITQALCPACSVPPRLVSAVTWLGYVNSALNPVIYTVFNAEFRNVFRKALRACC
Put plainly: Receptor panel binding: D4,4 dopaminergic.

In data set [2] the target is T5, human 5-HT7 receptor stably transfected to CHO cells (Homo sapiens, UniProt P34969).
T5 construct: expressed in transfected cells; host or cells: CHO
T5 sequence (P34969 whole entry): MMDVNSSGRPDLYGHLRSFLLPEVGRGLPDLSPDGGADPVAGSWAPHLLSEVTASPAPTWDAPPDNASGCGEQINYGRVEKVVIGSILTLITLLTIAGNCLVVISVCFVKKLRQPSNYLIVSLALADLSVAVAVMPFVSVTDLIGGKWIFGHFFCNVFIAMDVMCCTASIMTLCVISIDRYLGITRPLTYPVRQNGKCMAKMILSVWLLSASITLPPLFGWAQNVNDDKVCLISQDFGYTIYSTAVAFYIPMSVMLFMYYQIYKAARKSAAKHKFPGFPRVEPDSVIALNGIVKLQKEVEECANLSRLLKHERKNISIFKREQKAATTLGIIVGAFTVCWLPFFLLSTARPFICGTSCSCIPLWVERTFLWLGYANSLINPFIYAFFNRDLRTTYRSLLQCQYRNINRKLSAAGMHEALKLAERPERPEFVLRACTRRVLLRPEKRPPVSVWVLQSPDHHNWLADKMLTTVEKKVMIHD
Briefly: 5-HT7 receptor binding, [3H]-LSD displacement.

The target of the next data set is nicotinic receptors. Briefly: Receptor panel binding: nicotinic receptors. The conditions noted are these: read-out: affinity (Ki), nicotinic receptors.
The target in a further data set is V2 of vasopressin (Homo sapiens, UniProt P30518). Briefly: Receptor panel binding: vasopressin V2.
Sequence of V2 of vasopressin (P30518 whole entry): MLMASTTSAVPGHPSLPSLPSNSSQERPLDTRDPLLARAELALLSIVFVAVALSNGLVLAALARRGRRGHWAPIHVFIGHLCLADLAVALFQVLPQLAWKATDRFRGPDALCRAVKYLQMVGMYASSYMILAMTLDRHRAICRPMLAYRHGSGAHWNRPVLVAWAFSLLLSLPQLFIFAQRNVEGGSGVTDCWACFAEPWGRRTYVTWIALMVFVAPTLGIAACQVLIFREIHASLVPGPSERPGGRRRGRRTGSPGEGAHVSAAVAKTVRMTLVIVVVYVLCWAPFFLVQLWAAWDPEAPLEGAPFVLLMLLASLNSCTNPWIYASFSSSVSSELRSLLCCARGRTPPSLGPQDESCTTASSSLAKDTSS
The target of a further data set is 5-HT transporter (Homo sapiens, UniProt P31645). Briefly: Binding affinity for 5-HT transporter.
Sequence of 5-HT transporter (P31645 whole entry): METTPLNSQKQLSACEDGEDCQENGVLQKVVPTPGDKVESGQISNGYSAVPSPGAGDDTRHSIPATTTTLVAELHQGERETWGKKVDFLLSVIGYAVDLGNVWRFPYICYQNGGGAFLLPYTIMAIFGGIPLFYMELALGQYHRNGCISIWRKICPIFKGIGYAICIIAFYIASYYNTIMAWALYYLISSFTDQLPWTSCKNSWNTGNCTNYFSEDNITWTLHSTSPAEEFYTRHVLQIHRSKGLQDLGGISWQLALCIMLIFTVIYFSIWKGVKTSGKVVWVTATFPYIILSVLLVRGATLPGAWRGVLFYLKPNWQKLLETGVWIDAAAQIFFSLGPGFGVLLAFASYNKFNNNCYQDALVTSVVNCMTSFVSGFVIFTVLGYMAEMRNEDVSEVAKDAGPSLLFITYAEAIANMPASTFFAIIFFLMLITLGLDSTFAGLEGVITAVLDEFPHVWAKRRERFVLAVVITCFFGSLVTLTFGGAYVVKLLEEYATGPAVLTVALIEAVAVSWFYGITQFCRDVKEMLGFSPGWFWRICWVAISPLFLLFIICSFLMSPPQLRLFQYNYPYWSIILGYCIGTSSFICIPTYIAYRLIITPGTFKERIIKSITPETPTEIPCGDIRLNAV
In another data set the target is NMDA. Briefly: Receptor panel binding: NMDA. The conditions noted are these: read-out: affinity value, NMDA.
Data set [3] has as its target muscarinic (non-selective). Put plainly: Receptor panel binding: muscarinic. The conditions noted are these: read-out: affinity value, muscarinic (non-selective).
The target of the next data set is PCP. Put plainly: Receptor panel binding: PCP. The conditions noted are these: read-out: affinity (Ki), PCP.
The target of a further data set is T6, 5-HT1a (Homo sapiens, UniProt P08908).
T6 sequence (P08908 1-422): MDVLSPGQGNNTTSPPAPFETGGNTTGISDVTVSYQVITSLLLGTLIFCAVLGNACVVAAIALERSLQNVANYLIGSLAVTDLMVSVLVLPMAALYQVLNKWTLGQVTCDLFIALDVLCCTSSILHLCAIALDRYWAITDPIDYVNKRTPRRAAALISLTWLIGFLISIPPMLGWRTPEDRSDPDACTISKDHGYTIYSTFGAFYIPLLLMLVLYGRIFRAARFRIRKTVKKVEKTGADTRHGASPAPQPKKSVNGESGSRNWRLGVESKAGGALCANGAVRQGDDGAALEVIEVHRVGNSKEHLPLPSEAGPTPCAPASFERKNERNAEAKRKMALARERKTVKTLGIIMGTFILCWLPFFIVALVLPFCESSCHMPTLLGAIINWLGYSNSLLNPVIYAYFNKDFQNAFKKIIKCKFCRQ
Briefly: Binding affinity for serotonin subtype 5-HT1a.

In another data set the target is NA transporter (Homo sapiens, UniProt P23975). Briefly: Receptor panel binding: NA transporter.
For another data set, the target named is H1 histaminergic (Homo sapiens, UniProt P35367). Put plainly: Receptor panel binding: H1 histaminergic.
Sequence of H1 histaminergic (P35367 whole entry): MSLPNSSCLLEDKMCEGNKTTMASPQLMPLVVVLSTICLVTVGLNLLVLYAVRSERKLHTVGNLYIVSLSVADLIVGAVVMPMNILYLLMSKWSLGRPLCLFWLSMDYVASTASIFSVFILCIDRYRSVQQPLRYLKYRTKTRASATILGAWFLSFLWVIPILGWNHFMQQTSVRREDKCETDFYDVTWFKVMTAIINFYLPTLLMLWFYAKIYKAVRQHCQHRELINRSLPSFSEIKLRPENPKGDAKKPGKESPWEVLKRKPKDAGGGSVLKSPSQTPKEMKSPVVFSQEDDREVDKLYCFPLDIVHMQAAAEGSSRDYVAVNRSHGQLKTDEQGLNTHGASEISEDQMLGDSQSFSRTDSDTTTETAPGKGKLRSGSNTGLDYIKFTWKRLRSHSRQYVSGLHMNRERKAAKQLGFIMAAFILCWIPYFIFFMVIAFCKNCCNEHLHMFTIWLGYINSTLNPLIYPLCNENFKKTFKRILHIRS
The target in a further data set is D5 dopaminergic (Homo sapiens, UniProt P21918). Put plainly: Receptor panel binding: D5 dopaminergic.
The next data set addresses 5-HT2b (Homo sapiens, UniProt P41595). Put plainly: Binding affinity for serotonin subtype 5-HT2b.
For a further data set, the target named is 5-HT1b (Homo sapiens, UniProt P28222). Put plainly: Binding affinity for serotonin subtype 5-HT1b.

Sequence of 5-HT1d (P28221 whole entry, species assumed): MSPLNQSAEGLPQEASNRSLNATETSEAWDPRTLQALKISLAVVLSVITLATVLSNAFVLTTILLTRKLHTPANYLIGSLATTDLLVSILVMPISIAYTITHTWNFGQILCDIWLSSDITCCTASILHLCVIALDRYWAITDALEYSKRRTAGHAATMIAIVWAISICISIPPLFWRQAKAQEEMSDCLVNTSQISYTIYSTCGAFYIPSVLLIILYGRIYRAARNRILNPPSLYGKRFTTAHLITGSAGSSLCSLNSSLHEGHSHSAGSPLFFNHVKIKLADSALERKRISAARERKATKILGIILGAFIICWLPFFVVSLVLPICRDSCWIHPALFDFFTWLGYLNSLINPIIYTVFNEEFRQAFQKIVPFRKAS
Sequence of D1 dopaminergic (P21728 whole entry): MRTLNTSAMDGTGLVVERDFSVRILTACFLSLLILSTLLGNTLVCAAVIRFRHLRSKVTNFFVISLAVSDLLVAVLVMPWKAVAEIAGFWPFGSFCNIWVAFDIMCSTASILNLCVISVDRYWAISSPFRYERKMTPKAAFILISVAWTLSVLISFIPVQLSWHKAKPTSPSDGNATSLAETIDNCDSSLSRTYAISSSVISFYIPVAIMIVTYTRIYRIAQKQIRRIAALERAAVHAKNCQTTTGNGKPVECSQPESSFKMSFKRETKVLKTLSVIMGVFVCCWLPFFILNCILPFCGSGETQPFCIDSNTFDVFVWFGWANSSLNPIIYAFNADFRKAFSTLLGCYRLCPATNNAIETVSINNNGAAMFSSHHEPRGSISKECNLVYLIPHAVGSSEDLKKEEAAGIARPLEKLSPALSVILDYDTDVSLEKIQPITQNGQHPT
Sequence of 5-HT2b (P41595 whole entry, species assumed): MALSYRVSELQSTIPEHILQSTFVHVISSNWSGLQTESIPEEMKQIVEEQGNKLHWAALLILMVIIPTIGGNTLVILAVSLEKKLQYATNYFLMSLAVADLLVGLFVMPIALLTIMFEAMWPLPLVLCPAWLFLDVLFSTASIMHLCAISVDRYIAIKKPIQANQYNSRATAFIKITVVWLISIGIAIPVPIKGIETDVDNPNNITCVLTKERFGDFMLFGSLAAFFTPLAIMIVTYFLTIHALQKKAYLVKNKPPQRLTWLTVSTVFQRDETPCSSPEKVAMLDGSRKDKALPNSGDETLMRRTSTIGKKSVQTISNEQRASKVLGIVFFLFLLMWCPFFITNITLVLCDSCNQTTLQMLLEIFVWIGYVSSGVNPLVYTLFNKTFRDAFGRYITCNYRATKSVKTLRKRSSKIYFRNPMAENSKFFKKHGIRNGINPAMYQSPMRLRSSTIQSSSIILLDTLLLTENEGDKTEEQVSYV

In the case of `Cc1[nH]c2ccc(Br)cc2c1CCN(C)C` [ST 1938, 5-bromo-2-methyl-N,N-dimethyltryptamine], the melting point (as a rule, the temperature, or range, at which the solid turns liquid) was in the range of 135 to 136 °C. The compound further yielded a Ki at 5-HT1d of more than 1000 nM. In addition, the Ki at 5-HT4 was more than 1000 nM. Further, the Ki at D1 dopaminergic is more than 1000 nM. Also, on 5-HT2a, the Ki is more than 1000 nM. The compound further gave a Ki at DA transporter of more than 1000 nM. Further, the Ki at 5-HT3 is more than 1000 nM. The same compound displayed a Ki on 5-HT5a of more than 1000 nM. For the same compound, on opiate (non-selective), the Ki is more than 1000 nM. Also, the Ki on vasopressin V1 is more than 1000 nM. The same compound registered a Ki at D3 dopaminergic of more than 1000 nM. In addition, at D2 dopaminergic, the Ki was more than 1000 nM. In data set [1], the “5-HT6 binding affinity compared with Serotonin (in words)” value is “greater than that observed for Serotonin”; the IC50 (as a rule, the concentration needed to halve the response being measured) was determined as 62 nM; the Ki amounted to 32 nM; the “affinity for rat recombinant 5-HT6 receptor (in words)” value is “high affinity”. In [1] (over other serotonin sites and other neurotransmitter receptors), the “selectivity of binding for 5-HT6 receptor (in words)” value was “mixed activity for 5-HT6 and 5-HT7 serotonin receptors”. Further, the Ki at 5-HT2c was more than 1000 nM. For the same compound, the Ki on D4,4 dopaminergic is more than 1000 nM. In data set [2], the IC50 was determined as 158 nM, the Ki came out at 47 nM and the “affinity for human recombinant 5-HT7 receptor (in words)” value is reported as “highest affinity”. Also, the Ki on nicotinic receptors is more than 1000 nM. The Ki at V2 of vasopressin is more than 1000 nM. On 5-HT transporter, this compound had a Ki of more than 1000 nM. The Ki on NMDA is more than 1000 nM. Also, the Ki in [3] was more than 1000 nM. Also, the Ki at PCP is more than 1000 nM. The same compound displayed a Ki on 5-HT1a of 947 nM. On NA transporter, this compound displayed a Ki of more than 1000 nM. On H1 histaminergic, this compound came in with a Ki of more than 1000 nM. Moreover, the Ki at D5 dopaminergic is more than 1000 nM. The same compound showed a Ki on 5-HT2b of 154 nM. The compound further came in with a Ki on 5-HT1b of more than 1000 nM.
As to `NCCc1c[nH]c2ccc(O)cc12` [Serotonin, reference compound], in data set [1], the IC50 was determined as 171 nM and the Ki was 87 nM.
